Experimental data from article PMC9220355, “Inhibition of the Peroxygenase Lytic Polysaccharide Monooxygenase by Carboxylic Acids and Amino Acids” (Antioxidants, 2022).
Read-outs that look alike come from different tables or passages of the source.

Columns and labels:
[1] = biological target: T1, NcLPMO9C (Neurospora crassa, UniProt Q7SHI8); settings: for Rate (Light Intensity at 620 nm min^−1): 0.5 µM NcLPMO9C, 1 mM ascorbic acid, 100 µM H2O2, pH 6.0, acetic acid 200 mM, mean ± SD; for activity: pH 6
T1 sequence (Q7SHI8 17-359): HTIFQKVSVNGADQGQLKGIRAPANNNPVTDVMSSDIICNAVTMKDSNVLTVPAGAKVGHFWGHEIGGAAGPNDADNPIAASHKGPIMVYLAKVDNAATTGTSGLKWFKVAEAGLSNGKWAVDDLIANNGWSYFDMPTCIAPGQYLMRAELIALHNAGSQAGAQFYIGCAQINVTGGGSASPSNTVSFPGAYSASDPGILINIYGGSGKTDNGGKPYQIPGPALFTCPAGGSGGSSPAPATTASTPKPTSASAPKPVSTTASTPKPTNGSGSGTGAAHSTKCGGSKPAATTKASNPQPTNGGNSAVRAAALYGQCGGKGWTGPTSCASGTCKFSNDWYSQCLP
Method: LPMO activity was measured by the attenuation of optical density at 620 nm at 30 °C in 100 mM sodium acetate, 100 mM sodium citrate, or 100 mM sodium phosphate buffer, pH 6.0. […] The pH was checked before and after the measurements. A total volume of 2.5 mL contained 100 mM of buffer, pH 6.0, 0.8 mg/mL PASC, 0.5 or 1.0 µM of NcLPMO9C, 1 mM ascorbic acid or 1 µM NcCDHIIA with 10 mM lactose. A 10 mm quartz cuvette with a magnetic stirrer was used to maintain a homogeneously mixed PASC suspension.
To measure the inhibition by oxalic acid, the change in light intensity per minute was calculated at different inhibitor concentrations. […] LPMO was reduced with ascorbic acid and mixed with H2O2 to measure the activity.
LPMO peroxygenase activity was tested on PASC using a turbidity assay. Reaction was started with H2O2 and rates were obtained from light-intensity decrease at 620 nm. Assay contained 0.5 µM (A) or 1.0 µM (B) NcLPMO9C, 0.8 mg mL^−1 PASC, 1 mM ascorbic acid and 100 µM H2O2, respectively. H2O2 was added after 30 s to the stirred cuvette and the rate calculated from 40 s up to 200 s, having a data interval for each point of 0.1 s. pH was checked after all measurements and data are expressed as mean values (±SE), from three independent repeats. IC50 values were obtained by a nonlinear curve fit and calculating the oxalic acid concentration of oxalic acid at 50% of the rate.

[2] = tested on: NcCDHIIA; experiment: Amplex Red–horseradish peroxidase assay, background H2O2 production by CDH; assay type: biochemical, Neurospora crassa; settings: for Specific activity, Background: without LPMO, 1 µM NcCDHIIA, 10 mM lactose, 50 µM AmplexRed, 7 U mL-1 horseradish peroxidase
Method: (§1) The Amplex Red–horseradish peroxidase assay was used to measure the uncoupling reaction of NcLPMO9C that produces superoxide or H2O2. The activity of LPMO was measured in the presence of oxalic acid as an inhibitory compound.

[3] = biological target: T1, NcLPMO9C; settings: - Ascorbic acid (blank); 4 h, 4 × 100 µM H2O2, 100 mM compound
Method: NcLPMO9C (1 µM) was incubated with 2 mg mL^−1 PASC, either 1 mM ascorbic acid or 1 µM NcCDHIIA together with 10 mM lactose as reductant and 400 µM H2O2 (4 × 100 µM) as cosubstrate at a total volume of 1 mL. At the beginning and after every hour, 100 µM H2O2 was added to the reaction. The reaction tubes were closed and continuously mixed in the dark for a total reaction time of 4 h. Reactions were stopped by heating to 95 °C for 10 min. The remaining PASC was removed by centrifugation, and the supernatant was analyzed by HPLC. Soluble cello-oligomers (DP 1–6) were used as standards to quantify LPMO-released products. To test the effect of different buffers or inhibitors, 100 mM sodium acetate buffer, pH 6.0, was supplemented with 100 mM of the different compounds.
We analyzed cello-oligomeric product formation after PASC treatment with NcLPMO9C, which is released as a byproduct of cellulose oxidation. […] Conditions with different buffers and reducing agents were tested. In all experiments, LPMO, PASC and H2O2 were present. As a reducing agent, ascorbic acid was chosen, whereas blank reactions were carried out in the absence of ascorbic acid.
H2O2 was added four times every hour.

[4] = biological target: T1, NcLPMO9C; experiment: Amplex Red–horseradish peroxidase assay of the uncoupling reaction (H2O2 production) of LPMO; assay type: biochemical; set-up: made in house; host or cells: Pichia pastoris X-33; settings: 1 µM NcLPMO9C, 1 µM NcCDHIIA, 10 mM lactose, 50 µM AmplexRed, 7 U mL-1 horseradish peroxidase; for Specific activity, NcLPMO9C - background: 100 mM sodium acetate buffer pH 6.0, without or with 100 mM oxalic acid; for Specific activity, NcLPMO9C: not background-corrected
Method: as §1

[5] = biological target: T1, NcLPMO9C; settings: for Residual activity to 100 mM acetate buffer, Hydro-Coerulignone: pH 6; for peroxidase activity of LPMO at higher concentrations: >100 mM of the substance, 2,6-DMP and hydrocoerulignone assays
Method: (§2) LPMO-activity assay using 2000 µM 2,6-DMP or 500 µM hydrocoerulignone were carried out in 100 mM sodium acetate buffer at pH 6.0, at 30 °C using 100 µM H2O2, at 469 nm and a reaction time of 300 s. For blank reactions, the same experiments were performed without adding LPMO. The resulting rate was subtracted from the rate with the addition of LPMO. One unit of LPMO activity is defined as the conversion of either 2 µmol 2,6-DMP or 1 µmol hydrocoerulignone or the formation of 1 µmol coerulignone (ε469 = 53,200 M^−1 cm^−1) per min under reaction conditions. For the inhibition tests, the 100 mM sodium acetate buffer at pH 6.0 was supplemented with 100 mM of the different compounds and the pH was checked before and after the measurements.
(§3) By measuring the LPMO activity in 100 mM sodium acetate buffer, we determined the maximum activity achievable for the applied conditions.

[6] = biological target: T1, NcLPMO9C; experiment: biochemical; settings: for remaining activity at 100000 µM: pH 6, read-out: Residual activity to 100 mM acetate buffer, Hydro-Coerulignone; for IC50: IC50 values as summarised in the text, for both assays (2,6-DMP and hydrocoerulignone), peroxidase reaction
Method: as §2, §3

| Compound | Rate (Light Intensity at 620 nm min^−1) [1] | Total cello-oligomers produced [3] [µM] | cellobiose produced [3] [µM] | cellotetraose produced [3] [µM] | cellotriose produced [3] [µM] | also measured |
| --- | --- | --- | --- | --- | --- | --- |
| CC(=O)O [Acetic acid] | 0.14 ± 0.01 Light Intensity at 620 nm min^−1 | 14.6 | 4.2 | 6.2 | 4.3 | Specific activity, Background [2]: 2.6 ± 0.1 U g-1; Specific activity, NcLPMO9C - background [4]: 4.9 ± 0.1 U g-1; Specific activity, NcLPMO9C [4]: 7.5 ± 0.1 U g-1 |
| O=CC=O [Glyoxal] | – | – | – | – | – | Residual activity to 100 mM acetate buffer, Hydro-Coerulignone [5]: 43.9 ± 3.6% |
| CC(=O)C(=O)O [Pyruvic acid] | – | 9.0 | 5.6 | – | 3.3 | remaining activity at 100000 µM [6]: 4.1 ± 0.4% |
| O=CC(=O)O [Glyoxylic acid] | – | – | – | – | – | Residual activity to 100 mM acetate buffer, Hydro-Coerulignone [5]: 1.1 ± 0.3% |
| [F-].[Na+] [NaF] | – | – | – | – | – | effect on the activity of the LPMO ([5]; peroxidase assays): did not show any effect on the activity of the LPMO until very high concentrations were used |
| CC(O)C(=O)O (centres unmarked) [Lactic acid] | 0.08 ± 0.02 Light Intensity at 620 nm min^−1 | 12.4 | 3.5 | 5.4 | 3.6 | activity [1]: 47 ± 13% |
| N[C@@H](Cc1c[nH]cn1)C(=O)O [Histidine] | – | – | – | – | – | IC50 [6]: ~1 mM; remaining activity at 100000 µM [6]: 0.4 ± 0.2%; peroxidase activity of LPMO at higher concentrations [5]: nondetectable level |
| c1c[nH]cn1 [Imidazole] | – | – | – | – | – | Residual activity to 100 mM acetate buffer, Hydro-Coerulignone [5]: 72.2 ± 3.9% |
| O=C(O)CC(O)(CC(=O)O)C(=O)O [Citric acid] | 0.014 ± 0.001 Light Intensity at 620 nm min^−1 | 17.3 | 7.2 | 5.9 | 4.2 | peroxidase activity of LPMO at higher concentrations [5]: nondetectable level; activity [1]: 8 ± 1% |
| O=P(O)(O)O [Phosphoric acid] | 0.107 ± 0.02 Light Intensity at 620 nm min^−1 | 14.8 | 6.9 | 4.6 | 3.3 | – |
| O=S(=O)([O-])[O-].[Na+].[Na+] [Na2SO4] | – | – | – | – | – | IC50 ([5]; read-out: IC50 values as summarised in the text, for both assays (2,6-DMP and hydrocoerulignone), peroxidase reaction): ~30 mM |
| O=C(O)C(=O)O [Oxalic acid] | 0.002 ± 0.001 Light Intensity at 620 nm min^−1 | 15.8 | 6.8 | 5.3 | 3.7 | IC50 [6]: ~1 mM; remaining activity at 100000 µM [6]: 0.6 ± 0.1%; peroxidase activity of LPMO at higher concentrations [5]: nondetectable level; H2O2 production by NcCDHIIA ([2]; 100 mM oxalic acid): not inhibited; Specific activity, Background [2]: 3.4 ± 0.1 U g-1; Specific activity, NcLPMO9C - background [4]: 0.1 ± 0.1 U g-1; Specific activity, NcLPMO9C [4]: 3.5 ± 0.1 U g-1 |
